Results on 13 molecules are retold here after ChEMBL document CHEMBL5465560, “Selectivity Literature for EUbOPEN Chemogenomic Library” (2024).

Experiment [1] deals with Homeodomain-interacting protein kinase 3 (Homo sapiens, UniProt Q9H422). As to the kind of experiment: Selectivity interaction (Upstate Kinase Profiler service (Millipore)) EUB0000056c HIPK3. The note with it: at 1 µM.
Experiment [2] deals with Angiopoietin-1 receptor (Homo sapiens) (UniProt Q02763). As to the kind of experiment: Selectivity interaction (Upstate Kinase Profiler service (Millipore)) EUB0000056c TEK. Conditions: at 1 µM.
The target of experiment [3] is Receptor-type tyrosine-protein kinase FLT3 (Homo sapiens) (UniProt P36888). The experiment can be described thus: Selectivity interaction (ProQinase) EUB0000171b FLT3. The note with it: at 1 µM.
Experiment [4] has as its target Tyrosine-protein kinase SYK (Homo sapiens, UniProt P43405). The note with it: at 10 µM.
Experiment [5] concerns the target Bone morphogenetic protein receptor type-1A (Homo sapiens, UniProt P36894). The experiment can be described thus: Selectivity interaction (Ambit KINOMEscan and KiNATiv profiling in Jurkat cells) EUB0000090b BMPR1A. The note with it: at 1 µM. Type of experiment: cell-based.
The target in experiment [6] is Cyclin-dependent kinase 2/cyclin A (Homo sapiens) (UniProt P24941+P20248+P78396). The experiment can be described thus: (§1) Selectivity interaction (Millipore kinase profiler) EUB0000124b CDK2. The format is protein-complex assay. Conditions: at 10 µM.
The target in experiment [7] is Cyclin-dependent kinase 2/cyclin E (Homo sapiens) (UniProt P24864+P24941+O96020). The description is as §1. The format is protein-complex assay. Conditions: at 10 µM.
Experiment [8] deals with Protein kinase C theta type (Homo sapiens, UniProt Q04759). The experiment can be described thus: Selectivity interaction (KinomeScan (DiscoverX)) EUB0000092b PRKCQ. The note with it: at 10 µM.
In experiment [9] the test system is Tyrosine-protein kinase ABL1 (Homo sapiens), P00519 [T315I]. As to the kind of experiment: Selectivity interaction (KinomeScan (DiscoverX)) EUB0001049a ABL1. Conditions: at 1 µM.
The target of experiment [10] is T1, Receptor-interacting serine/threonine-protein kinase 4 (Homo sapiens) (UniProt P57078).
T1 sequence (whole entry): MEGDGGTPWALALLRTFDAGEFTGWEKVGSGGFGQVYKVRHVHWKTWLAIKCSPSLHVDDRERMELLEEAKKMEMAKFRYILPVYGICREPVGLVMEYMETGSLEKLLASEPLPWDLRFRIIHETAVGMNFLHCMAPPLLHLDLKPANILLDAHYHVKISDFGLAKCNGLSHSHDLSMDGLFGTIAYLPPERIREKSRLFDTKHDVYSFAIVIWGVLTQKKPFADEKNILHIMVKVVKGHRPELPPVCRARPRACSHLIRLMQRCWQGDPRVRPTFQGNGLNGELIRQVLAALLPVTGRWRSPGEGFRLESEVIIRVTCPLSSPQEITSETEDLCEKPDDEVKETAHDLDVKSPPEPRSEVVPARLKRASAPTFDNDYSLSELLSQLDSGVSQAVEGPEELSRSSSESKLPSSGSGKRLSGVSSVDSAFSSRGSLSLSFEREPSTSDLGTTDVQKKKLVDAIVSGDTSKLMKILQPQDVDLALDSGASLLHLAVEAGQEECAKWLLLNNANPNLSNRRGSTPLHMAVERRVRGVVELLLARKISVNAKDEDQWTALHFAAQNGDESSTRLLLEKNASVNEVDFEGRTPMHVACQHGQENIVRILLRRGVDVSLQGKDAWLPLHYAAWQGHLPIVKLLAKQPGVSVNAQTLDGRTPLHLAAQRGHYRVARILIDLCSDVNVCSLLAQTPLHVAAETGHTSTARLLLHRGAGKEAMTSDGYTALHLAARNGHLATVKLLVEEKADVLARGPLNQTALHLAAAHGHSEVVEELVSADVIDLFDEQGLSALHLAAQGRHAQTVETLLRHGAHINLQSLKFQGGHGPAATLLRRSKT
As to the kind of experiment: Selectivity interaction (KinomeScan (DiscoverX)) EUB0000695a RIPK4. Conditions: at 100 nM.

For experiment [11], the target named is Death-associated protein kinase 3 (Homo sapiens) (UniProt O43293). The experiment can be described thus: Selectivity interaction (KinomeScan (DiscoverX)) EUB0000045b DAPK3.
Experiment [12] addresses Histone-lysine N-methyltransferase, H3 lysine-79 specific (Homo sapiens, UniProt Q8TEK3). The experiment can be described thus: Selectivity interaction (Methyltransferase screen (radiometric assays, panel of 8 PRMTs, 21 protein lysine methyltransferases, 3 DNA methyltransferases, and one RNA methyltransferase)) EUB0000272b DOT1L.
Experiment [13] addresses Mitogen-activated protein kinase kinase kinase 11 (Homo sapiens) (UniProt Q16584). The experiment can be described thus: Selectivity interaction (KinomeScan (DiscoverX)) EUB0000607a MAP3K11. The note with it: at 10 µM.
The target of experiment [14] is Vascular endothelial growth factor receptor 2 (Homo sapiens, UniProt P35968). As to the kind of experiment: Selectivity interaction (KinomeScan (DiscoverX)) EUB0000607a KDR. Conditions: at 10 µM.
Experiment [15] concerns the target Macrophage-stimulating protein receptor (Homo sapiens, UniProt Q04912). As to the kind of experiment: Selectivity interaction (Kinase panel (Invitrogen)) EUB0000639a MST1R. The note with it: at 200 nM.
Experiment [16] deals with Serine/threonine-protein kinase tousled-like 2 (Homo sapiens) (UniProt Q86UE8). The experiment can be described thus: Selectivity interaction (ActivX KiNativ screen (kinase selectivity in THP-1 cell lysates)) EUB0000639a TLK2. The format is subcellular. Conditions: lysate, at 1 µM.
For experiment [17], the target named is Ribosomal protein S6 kinase alpha-3 (Homo sapiens, UniProt P51812). As to the kind of experiment: Selectivity interaction (KinomeScan (DiscoverX)) EUB0001619a RPS6KA3. Conditions: at 1 µM.
For experiment [18], the target named is T2, 3-phosphoinositide-dependent protein kinase 1 (Homo sapiens) (UniProt O15530).
T2 sequence (whole entry): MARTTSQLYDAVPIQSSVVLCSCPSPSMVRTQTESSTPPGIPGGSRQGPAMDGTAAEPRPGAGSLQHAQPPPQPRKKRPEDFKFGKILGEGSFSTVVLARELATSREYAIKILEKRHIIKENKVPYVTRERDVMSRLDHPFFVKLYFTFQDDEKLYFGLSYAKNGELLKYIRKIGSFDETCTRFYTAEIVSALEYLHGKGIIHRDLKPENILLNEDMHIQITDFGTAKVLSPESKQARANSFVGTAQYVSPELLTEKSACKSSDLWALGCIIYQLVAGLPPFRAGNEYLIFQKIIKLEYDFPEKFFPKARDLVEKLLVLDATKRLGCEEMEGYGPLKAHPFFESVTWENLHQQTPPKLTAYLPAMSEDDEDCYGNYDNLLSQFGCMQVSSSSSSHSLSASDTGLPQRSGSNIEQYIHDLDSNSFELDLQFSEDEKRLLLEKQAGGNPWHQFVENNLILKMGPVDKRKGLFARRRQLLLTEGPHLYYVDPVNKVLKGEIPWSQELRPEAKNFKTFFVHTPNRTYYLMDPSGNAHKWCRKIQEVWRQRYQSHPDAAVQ
As to the kind of experiment: Selectivity interaction (KinomeScan (DiscoverX)) EUB0001619a PDPK1. Conditions: at 1 µM.

Sequence of Death-associated protein kinase 3 (Homo sapiens) (O43293 whole entry, looked up): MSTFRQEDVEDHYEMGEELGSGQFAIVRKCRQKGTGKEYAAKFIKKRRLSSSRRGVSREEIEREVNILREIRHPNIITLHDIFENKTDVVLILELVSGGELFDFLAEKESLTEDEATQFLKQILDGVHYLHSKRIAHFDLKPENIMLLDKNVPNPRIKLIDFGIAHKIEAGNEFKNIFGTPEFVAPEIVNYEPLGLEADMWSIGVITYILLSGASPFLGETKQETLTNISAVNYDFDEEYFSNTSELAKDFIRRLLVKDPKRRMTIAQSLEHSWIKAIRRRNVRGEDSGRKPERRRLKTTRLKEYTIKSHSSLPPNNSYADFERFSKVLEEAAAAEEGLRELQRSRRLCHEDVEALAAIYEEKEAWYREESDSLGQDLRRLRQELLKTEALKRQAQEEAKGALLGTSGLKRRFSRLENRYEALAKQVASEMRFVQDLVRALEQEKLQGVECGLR
Sequence of Histone-lysine N-methyltransferase, H3 lysine-79 specific (Q8TEK3 whole entry, looked up): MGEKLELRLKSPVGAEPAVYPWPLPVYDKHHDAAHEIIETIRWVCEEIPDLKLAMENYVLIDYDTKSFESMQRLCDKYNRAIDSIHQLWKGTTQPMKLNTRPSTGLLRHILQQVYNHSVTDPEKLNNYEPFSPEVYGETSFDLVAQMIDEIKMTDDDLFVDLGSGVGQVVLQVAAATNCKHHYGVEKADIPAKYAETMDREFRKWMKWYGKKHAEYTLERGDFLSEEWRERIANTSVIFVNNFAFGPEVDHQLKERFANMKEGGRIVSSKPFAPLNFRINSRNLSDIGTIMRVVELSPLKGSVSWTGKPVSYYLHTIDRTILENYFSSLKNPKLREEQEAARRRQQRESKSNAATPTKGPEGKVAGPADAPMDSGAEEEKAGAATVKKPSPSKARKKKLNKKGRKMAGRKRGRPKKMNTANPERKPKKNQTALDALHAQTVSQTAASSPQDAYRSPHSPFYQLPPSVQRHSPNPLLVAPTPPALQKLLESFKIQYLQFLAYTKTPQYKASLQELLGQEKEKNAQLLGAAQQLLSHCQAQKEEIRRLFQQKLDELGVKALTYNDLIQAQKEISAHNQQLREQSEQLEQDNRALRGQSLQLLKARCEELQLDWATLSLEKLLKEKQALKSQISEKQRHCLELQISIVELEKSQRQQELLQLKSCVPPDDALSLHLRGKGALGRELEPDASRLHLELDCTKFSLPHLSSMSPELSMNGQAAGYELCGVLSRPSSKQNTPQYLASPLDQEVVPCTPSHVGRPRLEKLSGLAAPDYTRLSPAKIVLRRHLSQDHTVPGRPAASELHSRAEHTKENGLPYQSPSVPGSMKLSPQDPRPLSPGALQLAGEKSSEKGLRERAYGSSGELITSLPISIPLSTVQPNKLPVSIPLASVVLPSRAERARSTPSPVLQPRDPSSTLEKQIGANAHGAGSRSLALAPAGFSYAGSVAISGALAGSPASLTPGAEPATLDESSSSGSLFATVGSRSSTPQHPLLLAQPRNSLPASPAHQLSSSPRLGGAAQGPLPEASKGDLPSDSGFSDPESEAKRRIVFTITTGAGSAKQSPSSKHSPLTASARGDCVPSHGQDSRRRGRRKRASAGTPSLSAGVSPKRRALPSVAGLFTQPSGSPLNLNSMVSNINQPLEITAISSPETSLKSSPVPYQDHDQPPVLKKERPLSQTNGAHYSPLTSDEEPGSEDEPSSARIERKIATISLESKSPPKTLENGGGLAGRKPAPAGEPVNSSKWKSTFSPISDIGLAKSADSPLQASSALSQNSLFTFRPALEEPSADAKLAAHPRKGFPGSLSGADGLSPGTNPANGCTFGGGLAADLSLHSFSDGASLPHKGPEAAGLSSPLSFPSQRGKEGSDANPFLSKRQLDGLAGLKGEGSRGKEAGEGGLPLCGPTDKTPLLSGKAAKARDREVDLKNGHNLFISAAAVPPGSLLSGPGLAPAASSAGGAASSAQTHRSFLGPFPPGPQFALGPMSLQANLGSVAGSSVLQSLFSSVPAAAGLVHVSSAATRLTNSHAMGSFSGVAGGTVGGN
Sequence of Receptor-type tyrosine-protein kinase FLT3 (Homo sapiens) (P36888 whole entry): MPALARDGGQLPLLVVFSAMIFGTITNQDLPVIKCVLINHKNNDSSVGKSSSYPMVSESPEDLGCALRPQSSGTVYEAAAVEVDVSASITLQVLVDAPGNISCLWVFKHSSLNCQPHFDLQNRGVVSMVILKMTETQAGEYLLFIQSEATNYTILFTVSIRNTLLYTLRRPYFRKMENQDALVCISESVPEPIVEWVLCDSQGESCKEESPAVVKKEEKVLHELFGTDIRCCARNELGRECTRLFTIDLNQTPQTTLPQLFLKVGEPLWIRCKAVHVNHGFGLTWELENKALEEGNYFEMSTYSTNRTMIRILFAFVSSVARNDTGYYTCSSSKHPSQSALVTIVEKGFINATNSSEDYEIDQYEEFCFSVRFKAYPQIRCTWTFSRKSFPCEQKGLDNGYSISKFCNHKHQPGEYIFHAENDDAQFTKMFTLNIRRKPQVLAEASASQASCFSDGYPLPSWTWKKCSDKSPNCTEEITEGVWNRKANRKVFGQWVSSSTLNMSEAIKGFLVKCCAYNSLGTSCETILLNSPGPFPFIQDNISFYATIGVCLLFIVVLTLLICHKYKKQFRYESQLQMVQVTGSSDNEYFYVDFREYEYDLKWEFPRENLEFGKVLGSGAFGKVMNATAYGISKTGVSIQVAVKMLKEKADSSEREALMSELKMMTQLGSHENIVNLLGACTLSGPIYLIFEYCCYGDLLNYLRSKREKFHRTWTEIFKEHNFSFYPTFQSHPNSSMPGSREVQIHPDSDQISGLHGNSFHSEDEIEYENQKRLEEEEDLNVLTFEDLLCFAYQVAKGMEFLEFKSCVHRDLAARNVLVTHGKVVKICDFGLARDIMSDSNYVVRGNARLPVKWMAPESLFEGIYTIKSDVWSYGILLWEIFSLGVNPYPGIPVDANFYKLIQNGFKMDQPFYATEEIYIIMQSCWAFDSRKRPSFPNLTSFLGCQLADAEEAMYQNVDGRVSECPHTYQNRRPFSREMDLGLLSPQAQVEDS
Sequence of Vascular endothelial growth factor receptor 2 (P35968 whole entry): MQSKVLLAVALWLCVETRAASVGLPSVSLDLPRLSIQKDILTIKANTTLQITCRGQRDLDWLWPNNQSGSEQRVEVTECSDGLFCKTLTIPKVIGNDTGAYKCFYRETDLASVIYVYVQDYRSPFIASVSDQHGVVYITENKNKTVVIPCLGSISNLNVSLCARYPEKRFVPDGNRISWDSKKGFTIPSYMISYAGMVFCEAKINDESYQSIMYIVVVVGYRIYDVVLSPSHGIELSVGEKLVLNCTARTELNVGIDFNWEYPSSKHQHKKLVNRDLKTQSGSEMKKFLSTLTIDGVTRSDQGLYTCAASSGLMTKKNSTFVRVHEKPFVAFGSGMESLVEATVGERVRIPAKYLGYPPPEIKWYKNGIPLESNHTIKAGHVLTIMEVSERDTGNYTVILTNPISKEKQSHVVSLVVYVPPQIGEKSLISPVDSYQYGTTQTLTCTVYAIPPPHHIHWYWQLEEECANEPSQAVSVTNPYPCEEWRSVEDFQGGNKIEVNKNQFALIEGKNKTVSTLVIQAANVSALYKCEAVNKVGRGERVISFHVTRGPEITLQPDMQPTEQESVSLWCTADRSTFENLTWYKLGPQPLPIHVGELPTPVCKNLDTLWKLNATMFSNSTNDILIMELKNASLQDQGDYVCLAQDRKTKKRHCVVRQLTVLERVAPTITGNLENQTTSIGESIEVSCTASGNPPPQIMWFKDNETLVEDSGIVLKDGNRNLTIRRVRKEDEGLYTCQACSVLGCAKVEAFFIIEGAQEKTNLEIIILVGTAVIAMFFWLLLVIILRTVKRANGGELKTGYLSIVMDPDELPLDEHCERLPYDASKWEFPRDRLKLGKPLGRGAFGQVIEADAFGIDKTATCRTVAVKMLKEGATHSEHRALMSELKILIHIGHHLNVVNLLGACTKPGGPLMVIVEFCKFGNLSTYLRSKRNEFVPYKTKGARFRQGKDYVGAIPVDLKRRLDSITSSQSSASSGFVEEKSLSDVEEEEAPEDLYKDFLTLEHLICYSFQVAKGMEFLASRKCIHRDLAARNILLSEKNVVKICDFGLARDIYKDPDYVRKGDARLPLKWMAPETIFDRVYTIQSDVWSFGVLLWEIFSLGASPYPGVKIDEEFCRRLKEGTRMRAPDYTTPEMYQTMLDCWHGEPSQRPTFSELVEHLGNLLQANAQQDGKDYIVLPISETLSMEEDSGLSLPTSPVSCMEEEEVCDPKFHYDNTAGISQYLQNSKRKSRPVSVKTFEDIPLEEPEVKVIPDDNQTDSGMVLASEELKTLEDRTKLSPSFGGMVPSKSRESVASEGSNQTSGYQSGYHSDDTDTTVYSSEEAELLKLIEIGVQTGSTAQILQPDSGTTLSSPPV
Sequence of Ribosomal protein S6 kinase alpha-3 (P51812 whole entry): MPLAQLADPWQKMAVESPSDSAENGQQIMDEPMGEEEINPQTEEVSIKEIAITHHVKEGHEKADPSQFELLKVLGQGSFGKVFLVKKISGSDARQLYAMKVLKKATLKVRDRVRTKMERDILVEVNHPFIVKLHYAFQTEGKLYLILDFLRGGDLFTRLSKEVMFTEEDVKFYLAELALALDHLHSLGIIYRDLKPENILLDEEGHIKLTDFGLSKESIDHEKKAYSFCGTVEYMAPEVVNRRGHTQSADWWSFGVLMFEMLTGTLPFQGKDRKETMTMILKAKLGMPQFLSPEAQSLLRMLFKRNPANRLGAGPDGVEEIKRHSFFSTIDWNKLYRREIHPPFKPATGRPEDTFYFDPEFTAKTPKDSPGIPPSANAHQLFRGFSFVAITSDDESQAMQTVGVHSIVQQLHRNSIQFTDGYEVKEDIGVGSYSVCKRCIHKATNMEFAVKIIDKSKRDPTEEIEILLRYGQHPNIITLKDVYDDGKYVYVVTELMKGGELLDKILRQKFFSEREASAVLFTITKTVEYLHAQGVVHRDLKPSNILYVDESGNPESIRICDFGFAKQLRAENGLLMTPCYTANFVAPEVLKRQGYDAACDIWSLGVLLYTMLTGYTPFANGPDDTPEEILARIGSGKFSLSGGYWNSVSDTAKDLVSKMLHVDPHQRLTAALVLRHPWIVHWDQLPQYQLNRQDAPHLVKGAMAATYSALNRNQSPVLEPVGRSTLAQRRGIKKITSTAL

With `Cc1ccc(-c2ccc3c(ccc4sc5c(c43)NC[C@@H](C)NC5=O)n2)cn1`, the figures for the % of inhibition in experiment [1] and in experiment [2] were -11% and -31%, respectively. As for `C=CC(=O)Nc1cccc(C(=O)Nc2ccc(Nc3cc(-c4[nH]c(SC)nc4C)ccn3)cc2)c1`, the % of control in experiment [3] was 94%. Turning to `Cc1cc([C@@H](C)Nc2ccccc2C(=O)O)c2nc(N3CCOCC3)cc(=O)n2c1` [AZD-6482], the % of control in experiment [4] stood at 100%. In the case of `CN(C)C/C=C/C(=O)Nc1ccc(C(=O)N2CCCC(Nc3ncc(Cl)c(-c4c[nH]c5ccccc45)n3)C2)cc1` (stereo not given), the % of control in experiment [5] came out at 100%. In the case of `CC(=O)Nc1cccc(-n2c(=O)n(C3CC3)c(=O)c3c(Nc4ccc(I)cc4F)n(C)c(=O)c(C)c32)c1`, the figures for the % of control in experiment [6] and in experiment [7] were 101% and 104%, respectively. `CCC(=O)N1CCN(c2ccc(-n3c(=O)ccc4cnc5ccc(-c6cnc7ccccc7c6)cc5c43)cc2C(F)(F)F)CC1` returned a % of control in experiment [8] of 91%. Molecule `COc1cc(Nc2nc(C)cc(-c3cnn4nc(OC)ccc34)n2)cc(C(F)(F)F)c1` had a % of control in experiment [9] of 100%. Take `Cc1cc(F)c(C(=O)Nc2cccc(-c3nncn3C(C)C)n2)cc1-n1cnc(C2CC2)c1`: the % of control in [10] was 100%. Turning to `C=CC(=O)Nc1cc(-n2c(=O)ccc3cnc4ccc(-c5ccc(NS(C)(=O)=O)cc5)cc4c32)ccc1C`, the % of control in experiment [11] (at 1 µM) is 100%; in experiment [11] (at 10 µM) it was 60%. `Cc1cc(C)cc([C@H]2c3cc(C)ccc3NC(=O)CN2C(=O)c2ccc(Br)s2)c1`: the % of activity amounted to 100% in experiment [12] (at 1 µM) and 94.3% in experiment [12] (at 10 µM). For `CNC(=O)Nc1ccc(-c2nc(N3CC4CCC(C3)O4)c3cnn(C4CCC5(CC4)OCCO5)c3n2)cc1`, the % of control in [13] amounted to 100%; in experiment [14], 76%. On to `CC[C@@H]1[C@H](F)C(=O)N[C@@H]1COc1nccc2cc(C(N)=O)c(OC)cc12` [ZIMLOVISERTIB], for which the results for the % of inhibition in [15] and in [16] were 12.6% and 43.3%, respectively.

With `N#Cc1cccc(-c2c[nH]c3ncnc(N4CCOCC4)c23)c1`, the % of control came out at 38% in experiment [17] and 100% in experiment [18].
